Key:
histamine H3 receptor [1] = molecular target: T1, histamine H3 receptor (Rattus norvegicus, UniProt Q9QYN8); assay: Inhibitory effect on histamine release suppressive action of histamine H3 receptor agonist (Nα-methylhistamine) in rat forebrain synaptosomes; type: biochemical; settings: 1 μmol/L test compound and 1 μmol/L Nα-methylhistamine, potassium 30 mmol/L stimulation, read-out: Inhibition ratio of the [3H]-histamine release suppressive action of Nα-methylhistamine
T1 construct: from tissue; host or cells: rat striatum (Sprague-Dawley, male, 6 weeks), membrane homogenate
T1 sequence (Q9QYN8 whole entry): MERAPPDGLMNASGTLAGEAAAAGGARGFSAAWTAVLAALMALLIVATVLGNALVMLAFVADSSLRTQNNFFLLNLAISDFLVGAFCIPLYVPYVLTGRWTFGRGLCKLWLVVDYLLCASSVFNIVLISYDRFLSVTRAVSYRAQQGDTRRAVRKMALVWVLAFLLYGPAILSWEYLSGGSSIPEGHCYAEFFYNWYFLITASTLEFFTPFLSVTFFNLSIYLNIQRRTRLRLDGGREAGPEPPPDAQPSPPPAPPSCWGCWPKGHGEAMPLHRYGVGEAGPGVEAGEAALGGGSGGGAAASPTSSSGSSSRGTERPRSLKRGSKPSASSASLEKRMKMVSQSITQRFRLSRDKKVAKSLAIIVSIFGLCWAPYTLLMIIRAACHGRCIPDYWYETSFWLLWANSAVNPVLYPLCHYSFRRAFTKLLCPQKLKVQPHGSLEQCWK
Procedure: To the forebrains of Sprague-Dawley male rats (6 to 8 weeks of age), a 30-fold volume of a 0.32 mol/L aqueous sucrose solution was added and the forebrains were homogenized. The resulting homogenate was centrifuged (1,000×g, 4° C., 10 min), and to the obtained supernatant, an equivalent volume of Krebs-Ringer solution [120 mmol/L sodium chloride, 0.8 mmol/L potassium chloride, 2.6 mmol/L calcium chloride, 0.67 mmol/L magnesium sulfate, 1.2 mmol/L potassium dihydrogen phosphate, 27.5 mmol/L sodium bicarbonate, 10 mmol/L glucose (pH 7.3)] was added, and the resulting mixture was centrifuged (10,000×g, 4° C., 15 min). To the obtained precipitate, a 15-fold volume of Krebs-Ringer solution was added to suspend the precipitate. Then, the concentration of protein in the resulting tissue homogenate (synaptosomes) was measured and used for a test.
To the synaptosomes (300 μg in terms of protein amount) prepared by the above-described method, a [^3H]-histidine solution [final concentration: […] (740 kBq)/mL]: 6 μl of a 37 MBq/mL (specific activity: […]) solution] was added, and the total volume was adjusted to 300 μL with Krebs-Ringer solution. Then, the resulting mixture was incubated at 37° C. for 30 minutes and centrifuged (10,000×g, 25° C., 3 min). To the resulting precipitate (synaptosomes), 300 μL of Krebs-Ringer solution was added, and the mixture was incubated at 37° C. for 5 minutes and centrifuged (10,000×g, 25° C., 3 min). This procedure was repeated 5 times, whereby washing of synaptosomes was carried out. The resulting synaptosomes were suspended in 100 μL of Krebs-Ringer solution, and the resulting suspension was used for the following procedure.
A test compound and N^α-methylhistamine were separately dissolved in Krebs-Ringer solution to give a concentration of 20 μmol/L (the resulting mixtures were referred to as a test compound solution and a N^α-methylhistamine solution, respectively). To 100 μL of the above-described suspended synaptosomes (300 μg in terms of protein amount), 140 μL of Krebs-Ringer solution was added. Then, 30 μL of the test compound solution and 30 μL of the N^α-methylhistamine solution were added thereto, and the resulting mixture was incubated at 37° C. for 2 minutes. Then, an equivalent volume of a stimulating solution [64 mmol/L sodium chloride, 56.8 mmol/L potassium chloride, 2.6 mmol/L calcium chloride, 0.67 mmol/L magnesium sulfate, 1.2 mmol/L potassium dihydrogen phosphate, 27.5 mmol/L sodium bicarbonate, 10 mmol/L glucose (pH 7.3)] (final potassium concentration: 30 mmol/L) was added, and the resulting mixture was incubated at 37° C. for 2 minutes to release [^3H]-histamine. The reaction mixture was centrifuged (10,000×g, 25° C., 3 min), and the obtained supernatant was passed through Amberlite CG-50 column (250 μL), and the non-adsorbed fractions were discarded. Then, 2 mL of 50 mmol/L [[…]]/hydrochloric acid (HCl) (pH 7.5) (Tris) was passed through the column 3 times, and 2 mL of distilled water, and 1.5 mL of a 0.2 mol/L aqueous sodium hydroxide solution were passed through the column in this order, and the eluted fractions were discarded. Then, 2 mL of a 0.2 mol/L aqueous sodium hydroxide solution was passed through the column, and the eluted fraction was recovered in a scintillation vial. Then, 8 mL of Ultimagold (Perkin Elmer) was added to the recovered eluted solution, and the radioactivity ([^3H]-histamine) was measured using a liquid scintillation counter. The inhibitory action of the test compound on the histamine release suppressive action of N^α-methylhistamine was evaluated by obtaining the inhibition ratio to the histamine release suppressive action in the presence of 1 μmol/L No-methylhistamine and 1 μmol/L of the test compound. The inhibition ratio of the [^3H]-histamine release suppressive action was calculated using the following Equation (2). […]

histamine H3 receptor [2] = molecular target: T1, histamine H3 receptor; assay: Histamine H3 receptor binding assay ([3H]-Nα-methylhistamine binding to rat striatum homogenate); settings: 1 μmol/L test compound; [3H]-Nα-methylhistamine 1 nmol/L; striata of Sprague-Dawley male rats, 25° C., 1 hour; read-out: Inhibition ratio of [3H]-Nα-methylhistamine binding
How it was run: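 Rat striatum membranes (20 μg protein) incubated with [3H]-Nα-methylhistamine 1 nmol/L in 50 mmol/L Tris/HCl pH 7.4, 5 mmol/L EDTA, 1 hour at 25° C; bound ligand by filtration and scintillation counting. Nonspecific binding defined with 10 μmol/L thioperamide; % inhibition reported at 1 μmol/L compound.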

In the case of C[C@@H]1CCCN1CCN1CCN(CCN2CCC[C@H]2C)C1=C(C#N)C#N [Compound 189, {1,3-Bis[2-((R)-2-methylpyrrolidin-1-yl)ethyl]imidazolidin-2-ylidene}malononitrile], the melting point was 139 to 141 °C, the inhibition at 1 µM (histamine H3 receptor [1]) was ≥ 70% and the inhibition at 1 µM (histamine H3 receptor [2]) was ≥ 80%.
